Values of other authors in US7582314B2, “Compositions and methods for the management of hyperproliferative dermatological conditions” (Sami Labs Ltd., priority 2003, dated 2009).
Read-outs that look alike come from different tables or passages of the source.

What was measured:
plaque psoriasis = details: oral supplementation; psoriasis patients
[1] = tested on: damage to the skin induced by UV radiation; details: topical; experimental animals
[2] = tested on: damage to the skin induced by UV radiation; details: topical; human subjects

C[Se]CC[C@H](N)C(=O)O [selenomethionine]
efficacy as adjuvant treatment in plaque psoriasis (plaque psoriasis): ineffective
degree of damage to the skin induced by UV radiation [1]: reduces
degree of damage to the skin induced by UV radiation [2]: reduces
